Reference: PubChem BioAssay AID2060882 (Molecular Pharmacology Branch, DTP, NCI, 2025)

Tested on: 898857-211-R-J1-PDC complex spheroids, growth % test/control
Experiment: Anticancer human tumor 898857-211-R-J1-PDC patient-derived melanoma cell line growth inhibition [RAS]
Conditions: for IC50: curve of first compound; for viability, T/C: stronger effect = lower value; active means viability on the fitted dose curve at most 10% of control; inactive means the rest
Method in brief: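 Multi-cell-type spheroids: tumor cells plus HUVEC endothelial cells and mesenchymal stem cells. RAS-pathway inhibitors were combined with targeted agents, each dosed in half-log steps down from clinical Cmax, or from 10 microM when Cmax was unknown.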

[1] = second compound 0.000949 µM, first compound 0.0316 µM
[2] = second compound 0.000949 µM, first compound 0.1 µM
[3] = second compound 0.000949 µM, first compound 0.316 µM
[4] = second compound 0.000949 µM, first compound 1 µM
[5] = second compound 0.003 µM, first compound 0.0316 µM
[6] = second compound 0.003 µM, first compound 0.1 µM
[7] = second compound 0.003 µM, first compound 0.316 µM
[8] = second compound 0.003 µM, first compound 1 µM
[9] = second compound 0.00949 µM, first compound 0.0316 µM
[10] = second compound 0.00949 µM, first compound 0.1 µM
[11] = second compound 0.00949 µM, first compound 0.316 µM
[12] = second compound 0.00949 µM, first compound 1 µM
[13] = second compound 0.03 µM, first compound 0.0316 µM
[14] = second compound 0.03 µM, first compound 0.1 µM
[15] = second compound 0.03 µM, first compound 0.316 µM
[16] = second compound 0.03 µM, first compound 1 µM
[17] = second compound 0.0949 µM, first compound 0.0316 µM
[18] = second compound 0.0949 µM, first compound 0.1 µM
[19] = second compound 0.0949 µM, first compound 0.316 µM
[20] = second compound 0.0949 µM, first compound 1 µM
[21] = second compound 0.3 µM, first compound 0.0316 µM
[22] = second compound 0.3 µM, first compound 0.1 µM
[23] = second compound 0.3 µM, first compound 0.316 µM
[24] = second compound 0.3 µM, first compound 1 µM
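Further: spheroids exposed to compound for seven days before readout.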
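Wherever viability, T/C is given: 100% = DMSO vehicle control wells.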

CCN1CCN(Cc2ccc(Nc3ncc(F)c(-c4cc(F)c5nc(C)n(C(C)C)c5c4)n3)nc2)CC1 + CCn1c(-c2cc(N3CCN(C)CC3)cnc2C(C)OC)c2c3cc(ccc31)-c1csc(n1)CC(NC(=O)C1CC1C)C(=O)N1CCCC(N1)C(=O)OCC(C)(C)C2
248 nM: IC50 (second compound 0.03 µM)
inactive: viability, T/C (second compound 0.000949 µM, first compound 0.00316 µM) 108% | viability, T/C (second compound 0.000949 µM, first compound 0.01 µM) 94.2% | viability, T/C [1] 82.1% | viability, T/C [2] 57.4% | viability, T/C [3] 51.6% | viability, T/C [4] 36.9% | viability, T/C (second compound 0.003 µM, first compound 0.00316 µM) 105% | viability, T/C (second compound 0.003 µM, first compound 0.01 µM) 96% | viability, T/C [5] 85.8% | viability, T/C [6] 54.9% | viability, T/C [7] 47.7% | viability, T/C [8] 38.1% | viability, T/C (second compound 0.00949 µM, first compound 0.00316 µM) 96.8% | viability, T/C (second compound 0.00949 µM, first compound 0.01 µM) 97.4% | viability, T/C [9] 82.3% | viability, T/C [10] 79.8% | viability, T/C [11] 42.7% | viability, T/C [12] 36.4% | viability, T/C (second compound 0.03 µM, first compound 0.00316 µM) 96.9% | viability, T/C (second compound 0.03 µM, first compound 0.01 µM) 102% | viability, T/C [13] 75.4% | viability, T/C [14] 67.4% | viability, T/C [15] 46.3% | viability, T/C [16] 29.4% | viability, T/C (second compound 0.0949 µM, first compound 0.00316 µM) 107% | viability, T/C (second compound 0.0949 µM, first compound 0.01 µM) 113% | viability, T/C [17] 87.2% | viability, T/C [18] 64.3% | viability, T/C [19] 48.9% | viability, T/C [20] 39% | viability, T/C (second compound 0.3 µM, first compound 0.00316 µM) 117% | viability, T/C (second compound 0.3 µM, first compound 0.01 µM) 110% | viability, T/C [21] 76% | viability, T/C [22] 70.2% | viability, T/C [23] 48.5% | viability, T/C [24] 33.9%
252 nM: IC50 (second compound 0.0949 µM)
267 nM: IC50 (second compound 0.000949 µM)
261 nM: IC50 (second compound 0.00949 µM)
288 nM: IC50 (second compound 0.3 µM)
191 nM: IC50 (second compound 0.003 µM)

C[C@@H](NC(=O)c1ncnc(N)c1Cl)c1ncc(C(=O)Nc2cc(C(F)(F)F)c(Cl)cn2)s1 + CCn1c(-c2cc(N3CCN(C)CC3)cnc2C(C)OC)c2c3cc(ccc31)-c1csc(n1)CC(NC(=O)C1CC1C)C(=O)N1CCCC(N1)C(=O)OCC(C)(C)C2
1690 nM: IC50 (second compound 0.000949 µM)
1300 nM: IC50 (second compound 0.00949 µM)
inactive: viability, T/C [1] 131% | viability, T/C [2] 98.4% | viability, T/C [3] 85% | viability, T/C [4] 59.8% | viability, T/C (second compound 0.000949 µM, first compound 3.16 µM) 38.7% | viability, T/C (second compound 0.000949 µM, first compound 10 µM) 20% | viability, T/C [5] 106% | viability, T/C [6] 109% | viability, T/C [7] 71% | viability, T/C [8] 55.2% | viability, T/C (second compound 0.003 µM, first compound 3.16 µM) 40.7% | viability, T/C (second compound 0.003 µM, first compound 10 µM) 22% | viability, T/C [9] 107% | viability, T/C [10] 99.5% | viability, T/C [11] 83.6% | viability, T/C [12] 53.7% | viability, T/C (second compound 0.00949 µM, first compound 3.16 µM) 33.9% | viability, T/C (second compound 0.00949 µM, first compound 10 µM) 21.2% | viability, T/C [13] 107% | viability, T/C [14] 99.3% | viability, T/C [15] 78.8% | viability, T/C [16] 50.3% | viability, T/C (second compound 0.03 µM, first compound 3.16 µM) 33.4% | viability, T/C (second compound 0.03 µM, first compound 10 µM) 21.7% | viability, T/C [17] 121% | viability, T/C [18] 106% | viability, T/C [19] 72.6% | viability, T/C [20] 52.2% | viability, T/C (second compound 0.0949 µM, first compound 3.16 µM) 38% | viability, T/C (second compound 0.0949 µM, first compound 10 µM) 19.6% | viability, T/C [21] 108% | viability, T/C [22] 87.5% | viability, T/C [23] 65.9% | viability, T/C [24] 56.8% | viability, T/C (second compound 0.3 µM, first compound 3.16 µM) 33.6% | viability, T/C (second compound 0.3 µM, first compound 10 µM) 16.9%
1090 nM: IC50 (second compound 0.03 µM)
1360 nM: IC50 (second compound 0.0949 µM)
1150 nM: IC50 (second compound 0.3 µM)
1340 nM: IC50 (second compound 0.003 µM)
